# Data published in patent US12383512B2, “Cannabidiol-type cannabinoid compound” (Jazz Pharmaceuticals Research UK LImited, priority 2019, dated 2025).
# Read-outs that look alike come from different tables or passages of the source.
# Tests used:
# [1] = tested on: seizure threshold current for tonic hind limb extensor convulsions in mice; test: Maximal electroshock seizure threshold (MEST) test in the mouse; conditions: for % change from vehicle (CC50) / CC50 ± SEM: MEST test
# Method: The efficacy of 6-OH CBD was tested in a mouse model of generalised seizure, the maximal electroshock seizure threshold (MEST) test.
# In the MEST test the ability of a drug to alter the seizure threshold current required to induce hind limb tonic extensor convulsions is measured according to an “up and down” method of shock titration (Kimball et al., 1957). An increase in seizure threshold is indicative of anti-convulsant effect.
# The ability of a test compound to alter the stimulus intensity, expressed as current (mA), required to induce the presence of tonic hind limb extensor convulsions, is assessed in the MEST.
# Naïve mice were acclimatised to the procedure room in their home cages for up to 7 days, with food and water available ad libitum.
# All animals were weighed at the beginning of the study and randomly assigned to treatment groups based on a mean distribution of body weight across groups.
# The first animal within a treatment group was given a shock at the expected or estimated CC50 current. For subsequent animals, the current was lowered or raised depending on the convulsions outcome from the preceding animal.
# Data generated from each treatment group were used to calculate the CC50±SEM values for the treatment group.
# Vehicle: (5% ethanol, 5% solutol, 90% Saline) was prepared as follows: 2 mL of ethanol, 2 mL of solutol were warmed to 60° C., in 36 mL of saline (1:1:18).
# The test compound, alpha 6-OH CBD was prepared according to the method described in Example 1. 6-OH CBD was administered at 3, 10 and 30 mg/kg (i.p.) in a 1:1:18 ethanol:solutol:0.9% saline formulation.
# 6-OH CBD effects were also calculated as percentage change in CC50 from the vehicle control group.
# Significant difference between drug-treated animals and controls were assessed according to Litchfield and Wilcoxon (1949).
# [2] = tested on: tonic hind limb extensor seizure following corneally delivered electroshock in mice; test: Supramaximal electroshock seizure (MES) test in the mouse; format: in vivo
# Method: The MES test is a very stringent model in which mice receive a predetermined high-level electrical stimulus of sufficient intensity to reliably produce tonic hindlimb extensor seizures in 100% of control animals. As such the MES test is a rigorous evaluation of anticonvulsant activity (Swinyard, 1985).
# Animals were dosed i.p. according to treatment group. […]
# In addition, a dose of 100 mg/kg CBD was given at 10 ml/kg i.p. at 120 minutes pre-treatment time to assess the effect of the drug over a longer time course.
# The positive control valproate was used at 250 mg/kg (10 ml/kg i.p. 30 min pre-treatment time).
# Induction of seizure is measured as an all-or-nothing effect scored as either present (+) or absent (0) for each animal.
# Data was collected by an observer unaware of the treatment for each animal and was expressed as the number of +'s or 0's for each treatment group.
# The percentage inhibition of relevant vehicle treated group (the protection relative to vehicle treated controls) was then generated.
# Significant differences between individual treatment groups and vehicle-treated groups were assessed using 2-tailed Fisher's Exact Probability test (p<0.05 considered significant).
# [3] = Plasma and brain pharmacokinetics after single intravenous or intraperitoneal administration to the mouse; format: in vivo; conditions: for Kp: brain/plasma, other: intravenous and intraperitoneal, all IV and IP dose groups
# Text: The objective of this study was to determine brain and plasma pharmacokinetic parameters of 6-OH CBD following a single intravenous or intraperitoneal administration of 6-OH CBD to the mouse; and to determine brain: plasma concentration ratios for 6-OH CBD.
# Ninety-nine male mice each received a single intravenous or intraperitoneal dose of 6-OH CBD, as detailed below in Table 3.
# For each formulation, 6-OH CBD was formulated at the required concentration in ethanol: Kolliphor EL (Cremophor EL): 0.9% (w/v) Saline (1:1:18, v/v/v).
# Each animal received a single intravenous administration, via a tail vein, at a nominal dose volume of 2 mL/kg or a single intraperitoneal administration at a nominal dose volume of 5 mL/kg.
# Following dosing, terminal blood samples were collected from each animal via cardiac puncture, and brains were excised, at each of the following time points: • Intravenous groups: 7, 15 and 30 minutes, 1, 2, 4, 8, 12 and 24 hours; • Intraperitoneal groups: 15 and 30 minutes, 1, 2, 4, 8, 12 and 24 hours.
# Blood was collected into tubes containing lithium heparin anticoagulant and centrifuged to prepare plasma. Brain samples were frozen on dry ice, then weighed and stored deep frozen prior to bioanalysis. The remaining carcasses were discarded. Plasma was stabilised with an equal volume of ascorbic acid solution, then stored deep frozen prior to bioanalysis.
# Stabilised plasma samples were analysed to determine the concentrations of 6-OH CBD, using qualified LC-MS/MS methods. The results of these analyses were evaluated to determine non-compartmental pharmacokinetic parameters.
# The following parameters were determined: • Cmax Maximum concentration observed. • Tmax Time of maximum observed concentration. • AUC0-t Area under the concentration-time curve from hour 0 to the last quantifiable concentration, estimated by the linear trapezoidal rule. • AUC0-24 Area under the concentration-time curve from hour 0 to hour 24, estimated using the linear trapezoidal rule. • t1/2 Elimination half-life, determined as In(2)/λz. • Cl Clearance, calculated (for intravenous doses only) as Dose/AUC0-inf. • Vss Volume of distribution, based on the terminal elimination phase, calculated (for intravenous doses only) as Cl/λz. • Fabs Absolute bioavailability of the intraperitoneal dose.
# [4] = 3 mg/kg i.p., pre-treatment time 30 min
# [5] = 10 mg/kg i.p., pre-treatment time 15 min
# [6] = 30 mg/kg i.p., pre-treatment time 60 min
compound,measurement,setting,value
"C=C(C)[C@@H]1CC(O)C(C)=C[C@H]1c1c(O)cc(CCCCC)cc1O (stereo partly drawn) [6-OH CBD, Alpha 6-hydroxy cannabidiol]",effect on MEST in words,"[1]; 3, 10 and 30 mg/kg i.p.",dose-related increase in MEST
same,% change from vehicle (CC50),[1]; [4],25%
same,CC50 ± SEM,[1]; [4],30.0 ± 1.1 mA
same,% change from vehicle (CC50),[1]; [5],135%
same,CC50 ± SEM,[1]; [5],56.5 ± 2.1 mA
same,% change from vehicle (CC50),[1]; [6],327%
same,CC50 ± SEM,[1]; [6],102.5 ± 2.2 mA
same,% change from vehicle,"[2]; 3 mg/kg i.p., pre-treatment time 60 min",0%
same,seizure outcome in words,"[2]; 3 mg/kg i.p., text says 120 minutes before the test",ineffective
same,% change from vehicle,[2]; [6],100%
same,seizure outcome in words,"[2]; 30 mg/kg i.p., text says 120 minutes before the test",enabled all mice within the group to withstand seizures
same,seizure outcome in words,[2]; 100 mg/kg given 120 minutes before,statistically significant reduction of seizures
same,% change from vehicle,"[2]; 100 mg/kg i.p., pre-treatment time 60 min",100%
same,% change from vehicle,"[2]; 100 mg/kg i.p., pre-treatment time 120 min",100%
same,seizure outcome in words,"[2]; 100 mg/kg i.p., text says 120 minutes before the test",enabled all mice within the group to withstand seizures
same,% change from vehicle,"[2]; 200 mg/kg i.p., pre-treatment time 60 min",100%
same,seizure outcome in words,"[2]; 200 mg/kg i.p., text says 120 minutes before the test",enabled all mice within the group to withstand seizures
same,increase in brain AUC0-24 for a 10-fold increase in dose level,"[3]; brain, IP 3 to 30 mg/kg",32.6 fold
same,increase in brain Cmax for a 10-fold increase in dose level,"[3]; brain, IP 3 to 30 mg/kg",15.8 fold
same,Cmax,"[3]; male, brain, IP 3 mg/kg",851 ng/mL
same,Cmax,"[3]; male, brain, IP 10 mg/kg",3680 ng/mL
same,Cmax,"[3]; male, brain, IP 30 mg/kg",13500 ng/mL
same,Cmax,"[3]; male, brain, IV 1 mg/kg",1580 ng/mL
same,AUC(0-t),"[3]; male, brain, ip, 3 mg/kg, brain, IP 3 mg/kg, read-out: AUC0-24",768 ng·h/mL
same,AUC(0-t),"[3]; male, brain, ip, 3 mg/kg, brain, IP 3 mg/kg, read-out: AUC0-t",756 ng·h/mL
same,Tmax,"[3]; male, brain, ip, 3 mg/kg, brain, IP 3 mg/kg, read-out: Tmax (converted)",30 min
same,half-life,"[3]; male, brain, ip, 3 mg/kg, brain, IP 3 mg/kg, read-out: t1/2 (converted)",34.1 min
same,AUC(0-t),"[3]; male, brain, ip, 10 mg/kg, brain, IP 10 mg/kg, read-out: AUC0-24",3940 ng·h/mL
same,AUC(0-t),"[3]; male, brain, ip, 10 mg/kg, brain, IP 10 mg/kg, read-out: AUC0-t",3750 ng·h/mL
same,Tmax,"[3]; male, brain, ip, 10 mg/kg, brain, IP 10 mg/kg, read-out: Tmax (converted)",15 min
same,half-life,"[3]; male, brain, ip, 10 mg/kg, brain, IP 10 mg/kg, read-out: t1/2 (converted)",42.4 min
same,AUC(0-t),"[3]; male, brain, ip, 30 mg/kg, brain, IP 30 mg/kg, read-out: AUC0-24",25000 ng·h/mL
same,AUC(0-t),"[3]; male, brain, ip, 30 mg/kg, brain, IP 30 mg/kg, read-out: AUC0-t",25000 ng·h/mL
same,Tmax,"[3]; male, brain, ip, 30 mg/kg, brain, IP 30 mg/kg, read-out: Tmax (converted)",60 min
same,half-life,"[3]; male, brain, ip, 30 mg/kg, brain, IP 30 mg/kg, read-out: t1/2 (converted)",55.1 min
same,half-life,"[3]; male, brain, ip, brain, IP administration 3-30 mg/kg, read-out: t1/2 range",34.1 to 55.1 min
same,Tmax,"[3]; male, brain, ip, brain, after IP dosing (3-30 mg/kg), read-out: Tmax range",15 to 60 min
same,AUC(0-t),"[3]; male, brain, iv, 1 mg/kg, brain, IV 1 mg/kg, read-out: AUC0-24",690 ng·h/mL
same,AUC(0-t),"[3]; male, brain, iv, 1 mg/kg, brain, IV 1 mg/kg, read-out: AUC0-t",679 ng·h/mL
same,Tmax,"[3]; male, brain, iv, 1 mg/kg, brain, IV 1 mg/kg, read-out: Tmax (converted)",7.02 min
same,half-life,"[3]; male, brain, iv, 1 mg/kg, brain, IV 1 mg/kg, read-out: t1/2 (converted)",18.7 min
same,Kp,"[3]; male, read-out: Brain: plasma ratio for AUC0-24, range",1.41 to 2.01
same,Kp,"[3]; male, read-out: Brain: plasma ratio for Cmax, range",1.23 to 2.03
same,Cmax,"[3]; male, plasma, IP 3 mg/kg",658 ng/mL
same,Cmax,"[3]; male, plasma, IP 10 mg/kg",2550 ng/mL
same,Cmax,"[3]; male, plasma, IP 30 mg/kg",11000 ng/mL
same,Cmax,"[3]; male, plasma, IV 1 mg/kg",775 ng/mL
same,clearance,"[3]; male, plasma, IV 1 mg/kg",48.7 mL/min/kg
same,Vd,"[3]; male, plasma, IV 1 mg/kg, read-out: Vss",1.9 L/kg
same,AUC(0-t),"[3]; male, plasma, ip, 3 mg/kg, plasma, IP 3 mg/kg, read-out: AUC0-24",535 ng·h/mL
same,AUC(0-t),"[3]; male, plasma, ip, 3 mg/kg, plasma, IP 3 mg/kg, read-out: AUC0-t",533 ng·h/mL
same,Tmax,"[3]; male, plasma, ip, 3 mg/kg, plasma, IP 3 mg/kg, read-out: Tmax (converted)",15 min
same,half-life,"[3]; male, plasma, ip, 3 mg/kg, plasma, IP 3 mg/kg, read-out: t1/2 (converted)",59.6 min
same,AUC(0-t),"[3]; male, plasma, ip, 10 mg/kg, plasma, IP 10 mg/kg, read-out: AUC0-24",2600 ng·h/mL
same,AUC(0-t),"[3]; male, plasma, ip, 10 mg/kg, plasma, IP 10 mg/kg, read-out: AUC0-t",2590 ng·h/mL
same,Tmax,"[3]; male, plasma, ip, 10 mg/kg, plasma, IP 10 mg/kg, read-out: Tmax (converted)",15 min
same,half-life,"[3]; male, plasma, ip, 10 mg/kg, plasma, IP 10 mg/kg, read-out: t1/2 (converted)",64.8 min
same,AUC(0-t),"[3]; male, plasma, ip, 30 mg/kg, plasma, IP 30 mg/kg, read-out: AUC0-24",17700 ng·h/mL
same,AUC(0-t),"[3]; male, plasma, ip, 30 mg/kg, plasma, IP 30 mg/kg, read-out: AUC0-t",17700 ng·h/mL
same,Tmax,"[3]; male, plasma, ip, 30 mg/kg, plasma, IP 30 mg/kg, read-out: Tmax (converted)",15 min
same,half-life,"[3]; male, plasma, ip, 30 mg/kg, plasma, IP 30 mg/kg, read-out: t1/2 (converted)",57.5 min
same,Tmax,"[3]; male, plasma, ip, 30 mg/kg, plasma, IP 3, 10 or 30 mg/kg (each dose level), read-out: Tmax (converted)",15 min
same,half-life,"[3]; male, plasma, ip, 30 mg/kg, plasma, IP 3, 10 or 30 mg/kg, read-out: t1/2 range across dose levels",59.6 to 64.8 min
same,AUC(0-t),"[3]; male, plasma, iv, 1 mg/kg, plasma, IV 1 mg/kg, read-out: AUC0-24",343 ng·h/mL
same,AUC(0-t),"[3]; male, plasma, iv, 1 mg/kg, plasma, IV 1 mg/kg, read-out: AUC0-t",342 ng·h/mL
same,Tmax,"[3]; male, plasma, iv, 1 mg/kg, plasma, IV 1 mg/kg, read-out: Tmax (converted)",7.02 min
same,half-life,"[3]; male, plasma, iv, 1 mg/kg, plasma, IV 1 mg/kg, read-out: t1/2 (converted)",27.1 min
same,Fabs,"[3]; plasma, IP 3 mg/kg",52.1%
same,Fabs,"[3]; plasma, IP 10 mg/kg",75.8%
same,Fabs,"[3]; plasma, IP 30 mg/kg",173%
same,increase in plasma AUC0-24 for a 10-fold increase in dose level,"[3]; plasma, IP 3 to 30 mg/kg",33.2 fold
same,increase in plasma Cmax for a 10-fold increase in dose level,"[3]; plasma, IP 3 to 30 mg/kg",16.7 fold
"CN1C(=O)CN=C(c2ccccc2)c2cc(Cl)ccc21 [Diazepam, diazepam, reference compound]",% change from vehicle (CC50),"[1]; 2.5 mg/kg i.p., pre-treatment time 30 min",103%
"CCCC(CCC)C(=O)O [Valproate, valproate, reference compound]",% change from vehicle,"[2]; 250 mg/kg i.p., pre-treatment time 30 min",100%
